# Laboratory results published in patent US12486228B2, “N-substituted indoles and use as allosteric modulators of cannabinoid receptors” (priority 2018, dated 2025).
# pEC50: −log10 of the molar value. Where two headings read alike, the source gives them in different places.
# Assays:
# Experiment in all cases: cell-based
# hCB1 [1] = biological target: T1, hCB1 (Homo sapiens, UniProt P21554); design: host or cells: CHO-K1 PathHunter
# Procedure: PathHunter CB1 β-Arrestin Assay: Chinese hamster ovary K1 (CHO-K1)-PathHunter hCB1 β-arrestin cells (DiscoveRx, Fremont, CA) were seeded at 5000 cells/well in 384-well plates 24 h before use and incubated at 37° C., 5% CO2. Compounds were dissolved in dimethyl sulfoxide (DMSO) and diluted in optimized cell culture (OCC) media. Agonist EC80 was determined directly from an agonist dose—response curve (data not shown). […] Five microliters of allosteric modulator or vehicle solution was added to each well at the appropriate concentrations and incubated for 30 min. Five microliters of agonist was then added to each well followed by a 90 min incubation. Fifteen microliters of detection reagent was then added followed by further 60 min incubation at room temperature. Chemiluminescence was measured on a standard luminescence plate reader as relative light units (RLU). Basal RLU was defined as zero. […] Data were analyzed using the fourparameter variable-slope and allosteric EC50 shift nonlinear regression equations in Prism 5.0 (GraphPad, San Diego, CA).
# CB2 [2] = biological target: T2, CB2 (Homo sapiens, UniProt P34972); conditions: for pEC50 / Emax: CB2, agonist mode; for pEC50: read-out: CB2 Agonist mode cAMP EC50; for Emax: read-out: CB2 Agonist mode cAMP Emax
# hCB1 [3] = biological target: T1, hCB1; design: host or cells: CHO-K1
# Procedure: HitHunter cAMP assay: Inhibition of forskolin-stimulated cAMP was determined using the DiscoveRx HitHunter assay in hCB1R CHO-K1 cells. Cells (20,000 cells/well in low-volume 96 well plates) were incubated overnight in Opti-MEM (Invitrogen) containing 1% FBS at 37° C. and 5% CO2. Following this, Opti-MEM media was removed and replaced with cell assay buffer (DiscoveRx) and cells were co-treated at 37° C. with 10 μM forskolin and hCB1R ligands (0.10 nM-10 μM) for 30 min or 90 min cAMP antibody solution and cAMP working detection solutions were then added to cells according to the manufacturer's directions (DiscoveRx®) and cells were incubated for 60 min at room temperature. cAMP solution A was added according to the manufacturer's directions (DiscoveRx®) and cells were incubated for an additional 60 min at room temperature before chemiluminescence was measured on a Cytation 5 plate reader (top read, gain 200, integration time 10,000 ms).
# CB2 [4] = biological target: T2, CB2; conditions: for pEC50 / Emax: CB2, agonist mode; for pEC50: read-out: CB2 Agonist mode β-Arrestin EC50; for Emax: read-out: CB2 Agonist mode β-Arrestin Emax
# [5] = CB1, PAM mode, read-out: CB1 PAM mode β-Arrestin EC50
# [6] = CB1, agonist mode, read-out: CB1 Agonist mode β-Arrestin EC50
# [7] = read-out: CB1 Agonist mode β-Arrestin Emax
# [8] = read-out: CB1 PAM mode β-Arrestin Emax
# [9] = CB1, PAM mode, read-out: CB1 PAM mode cAMP EC50
# [10] = CB1, agonist mode, read-out: CB1 Agonist mode cAMP EC50
# [11] = read-out: CB1 Agonist mode cAMP Emax, CB1, agonist mode
# [12] = read-out: CB1 PAM mode cAMP Emax, CB1, PAM mode
# T2 sequence (P34972 whole entry, species assumed): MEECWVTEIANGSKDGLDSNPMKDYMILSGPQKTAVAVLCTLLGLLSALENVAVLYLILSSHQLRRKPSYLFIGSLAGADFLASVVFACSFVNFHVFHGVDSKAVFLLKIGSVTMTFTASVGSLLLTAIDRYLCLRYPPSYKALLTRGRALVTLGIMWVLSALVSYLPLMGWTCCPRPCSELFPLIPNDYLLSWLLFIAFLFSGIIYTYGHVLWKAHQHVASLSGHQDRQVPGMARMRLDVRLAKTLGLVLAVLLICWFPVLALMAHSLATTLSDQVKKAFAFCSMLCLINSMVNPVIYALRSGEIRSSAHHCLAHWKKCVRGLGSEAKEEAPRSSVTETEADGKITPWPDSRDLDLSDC
# T1 sequence (P21554 whole entry): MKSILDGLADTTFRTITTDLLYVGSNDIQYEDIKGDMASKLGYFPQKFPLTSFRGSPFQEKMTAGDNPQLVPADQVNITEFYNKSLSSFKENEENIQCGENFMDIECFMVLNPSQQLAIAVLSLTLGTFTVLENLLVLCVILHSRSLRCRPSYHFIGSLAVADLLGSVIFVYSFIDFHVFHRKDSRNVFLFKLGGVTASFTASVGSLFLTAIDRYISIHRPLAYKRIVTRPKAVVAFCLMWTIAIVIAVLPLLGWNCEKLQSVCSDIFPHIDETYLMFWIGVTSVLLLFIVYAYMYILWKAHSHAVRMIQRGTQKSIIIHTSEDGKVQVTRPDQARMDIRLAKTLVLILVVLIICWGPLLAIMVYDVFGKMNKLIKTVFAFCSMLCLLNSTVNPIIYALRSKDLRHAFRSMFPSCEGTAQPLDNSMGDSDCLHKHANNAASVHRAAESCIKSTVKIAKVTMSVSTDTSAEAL
Structure (SMILES),pEC50 (hCB1 [1]; [5]),pEC50 (hCB1 [1]; [6]),Emax (hCB1 [1]; [7]),Emax (hCB1 [1]; [8]),pEC50 (CB2 [2]),Emax (CB2 [2]),pEC50 (hCB1 [3]; [9]),pEC50 (hCB1 [3]; [10]),Emax (hCB1 [3]; [11]),Emax (hCB1 [3]; [12]),pEC50 (CB2 [4]),Emax (CB2 [4]),"CB1 PAM mode β-Arrestin Emax (hCB1 [1]; CB1, PAM mode)","CB1 Agonist mode β-Arrestin Emax (hCB1 [1]; CB1, agonist mode)",CB2 Agonist mode cAMP Emax (CB2 [2]),"CB1 PAM mode cAMP Emax (hCB1 [3]; CB1, PAM mode)","CB1 Agonist mode cAMP Emax (hCB1 [3]; CB1, agonist mode)",CB2 Agonist mode β-Arrestin Emax (CB2 [4])
"O=C(O)CCC(c1ccccc1)c1cn(C(=O)c2ccccc2)c2ccccc12 (stereo not shown) [Compound 29, 4-(1-Penzoyl-1H-indol-3-yl)-4-phenylbutanoic acid]",< 5.00,< 5.00,0%,0%,6.38,76%,6.15,6.22,92%,114%,< 5.00,0%,–,–,–,–,–,–
"O=C(O)CCC(c1ccccc1)c1cn(-c2ccccn2)c2ccccc12 (stereo not shown) [Compound 21, 4-Phenyl-4-(1-(pyridin-2-yl)-1H-indol-3-yl)butanoic acid]",< 5.00,< 5.00,0%,0%,5.95,85%,6.06,6.34,95%,96%,< 5.00,0%,–,–,–,–,–,–
"O=C(O)CCCCC(c1ccccc1)c1cn(-c2ccccc2)c2ccccc12 (stereo not shown) [Compound 20, 6-Phenyl-6-(1-phenyl-1H-indol-3-yl)hexanoic acid]",< 5.00,< 5.00,0%,0%,6.30,98%,5.96,6.45,96%,96%,< 5.00,0%,–,–,–,–,–,–
"O=[N+]([O-])CC(c1ccccc1)c1c(-c2ccccc2)[nH]c2ccccc12 (stereo not shown) [GAT211, reference compound]",–,–,–,–,< 5.00,–,–,–,–,–,< 5.00,–,(59) %,(14) %,(0) %,(73) %,(94) %,0%
"O=C(O)CCC(c1ccccc1)c1cn(-c2ccncc2)c2ccccc12 (stereo not shown) [Compound 23, 4-Phenyl-4-(1-(pyridin-4-yl)-1H-indol-3-yl)butanoic acid]",< 5.00,< 5.00,0%,0%,6.24,78%,5.97,6.45,83%,104%,< 5.00,0%,–,–,–,–,–,–
"O=C(O)CCC(c1ccccc1)c1cn(-c2cccnc2)c2ccccc12 (stereo not shown) [Compound 22, 4-Phenyl-4-(1-(pyridin-3-yl)-1H-indol-3-yl)butanoic acid]",< 5.00,< 5.00,0%,0%,6.14,68%,6.00,6.08,87%,109%,< 5.00,0%,–,–,–,–,–,–
"CC(CC(c1ccccc1)c1cn(-c2ccccc2)c2ccccc12)C(=O)O (racemic) [Compound 12, (±)-2-Methyl-4-phenyl-4-(1-phenyl-1H-indol-3-yl)butanoic acid]",< 5.00,< 5.00,–,–,–,–,6.15,5.97,–,–,–,–,(0) %,(0) %,–,(101) %,(60) %,–
"CC(=O)CC(C)C(c1ccccc1)c1cn(-c2ccccc2)c2ccccc12 (stereo not shown) [Compound 41, 4-Methyl-5-phenyl-5-(1-phenyl-1H-indol-3-yl)pentan-2-one]",< 5.00,< 5.00,0%,0%,< 5.00,–,< 5.00,< 5.00,0%,0%,< 5.00,0%,–,–,(34) %,–,–,–
